Measurements from the kinase profiling compilation of Christmann-Franck et al. (2016).
Values joined by “and” are separate entries in the source; they are usually repeats but may differ in a detail not shown here. Equal values may be shown once.

What was measured:
Assay in all cases: radiometric filter-binding kinase assay, Kinase HotSpot
Conditions in all cases: compound 0.5 µM; ATP 10 µM
ABL1 (human) = ABL1 (human) (UniProt P00519)
AKT2 (human) = AKT2 (human) (UniProt P31751)
CDK1 CCNB1 (human) = CDK1 CCNB1 (human) (UniProt P06493+P14635)
CDK2 CCNE1 (human) = CDK2 CCNE1 (human) (UniProt P24941+P24864)
CDK9 CCNT1 (human) = CDK9 CCNT1 (human) (UniProt P50750+O60563)
CSK (human) = CSK (human) (UniProt P41240)
DSTYK (human) = DSTYK (human) (UniProt Q6XUX3)
Chain of DSTYK (human) (Q6XUX3 whole entry, looked up): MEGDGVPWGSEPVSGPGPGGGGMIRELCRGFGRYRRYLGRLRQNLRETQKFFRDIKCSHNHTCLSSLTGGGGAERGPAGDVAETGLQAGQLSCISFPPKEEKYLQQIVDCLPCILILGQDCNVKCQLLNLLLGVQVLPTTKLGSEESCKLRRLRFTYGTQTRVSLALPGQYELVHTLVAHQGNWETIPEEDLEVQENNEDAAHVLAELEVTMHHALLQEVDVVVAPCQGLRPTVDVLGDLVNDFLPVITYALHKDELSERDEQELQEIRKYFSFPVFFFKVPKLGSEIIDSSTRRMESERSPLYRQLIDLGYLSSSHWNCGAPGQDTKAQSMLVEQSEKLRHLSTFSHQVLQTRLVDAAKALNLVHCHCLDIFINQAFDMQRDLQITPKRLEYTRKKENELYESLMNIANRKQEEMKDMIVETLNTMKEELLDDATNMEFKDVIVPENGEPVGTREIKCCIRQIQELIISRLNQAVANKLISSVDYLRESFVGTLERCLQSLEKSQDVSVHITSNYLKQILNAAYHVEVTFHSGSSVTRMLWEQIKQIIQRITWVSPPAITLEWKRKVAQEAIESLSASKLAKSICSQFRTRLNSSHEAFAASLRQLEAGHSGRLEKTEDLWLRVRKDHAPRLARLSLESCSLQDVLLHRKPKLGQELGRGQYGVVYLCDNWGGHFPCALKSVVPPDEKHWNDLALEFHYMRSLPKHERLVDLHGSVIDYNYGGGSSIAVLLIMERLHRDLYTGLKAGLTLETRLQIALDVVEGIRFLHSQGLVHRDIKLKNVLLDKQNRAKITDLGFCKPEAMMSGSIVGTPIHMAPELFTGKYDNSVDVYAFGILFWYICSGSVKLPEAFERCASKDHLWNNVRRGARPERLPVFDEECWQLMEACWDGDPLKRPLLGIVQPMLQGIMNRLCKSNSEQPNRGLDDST

DYRK4 (human) = DYRK4 (human) (UniProt Q9NR20)
EPHA2 (human) = EPHA2 (human) (UniProt P29317)
EPHA4 (human) = EPHA4 (human) (UniProt P54764)
FYN (human) = FYN (human) (UniProt P06241)
Chain of FYN (human) (P06241 whole entry, looked up): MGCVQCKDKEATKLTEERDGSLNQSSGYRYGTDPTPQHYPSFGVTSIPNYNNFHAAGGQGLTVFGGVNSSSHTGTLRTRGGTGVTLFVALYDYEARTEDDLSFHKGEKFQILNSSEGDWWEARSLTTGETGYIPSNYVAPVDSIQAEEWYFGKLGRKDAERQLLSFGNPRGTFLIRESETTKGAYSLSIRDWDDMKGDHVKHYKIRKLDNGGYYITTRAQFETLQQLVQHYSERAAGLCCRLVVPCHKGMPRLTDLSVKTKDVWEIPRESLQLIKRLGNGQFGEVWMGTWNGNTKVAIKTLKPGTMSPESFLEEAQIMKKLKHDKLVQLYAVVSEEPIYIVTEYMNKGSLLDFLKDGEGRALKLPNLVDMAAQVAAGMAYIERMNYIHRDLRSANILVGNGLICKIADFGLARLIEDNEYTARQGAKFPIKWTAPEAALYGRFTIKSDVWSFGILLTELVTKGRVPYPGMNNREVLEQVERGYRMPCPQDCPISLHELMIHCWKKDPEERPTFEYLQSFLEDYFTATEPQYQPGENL

GSG2 (human) = GSG2 (human) (UniProt Q8TF76)
IGF1R (human) = IGF1R (human) (UniProt P08069)
JAK2 JH1 JH2 (human) = JAK2 JH1 JH2 (human) (UniProt O60674)
LCK (human) = LCK (human) (UniProt P06239)
LIMK1 (human) = LIMK1 (human) (UniProt P53667)
LRRK2 (human) = LRRK2 (human) (UniProt Q5S007)
LYN (human) = LYN (human) (UniProt P07948)
MAP3K10 (human) = MAP3K10 (human) (UniProt Q02779)
MAP3K11 (human) = MAP3K11 (human) (UniProt Q16584)
MAP4K5 (human) = MAP4K5 (human) (UniProt Q9Y4K4)
Chain of MAP4K5 (human) (Q9Y4K4 whole entry, looked up): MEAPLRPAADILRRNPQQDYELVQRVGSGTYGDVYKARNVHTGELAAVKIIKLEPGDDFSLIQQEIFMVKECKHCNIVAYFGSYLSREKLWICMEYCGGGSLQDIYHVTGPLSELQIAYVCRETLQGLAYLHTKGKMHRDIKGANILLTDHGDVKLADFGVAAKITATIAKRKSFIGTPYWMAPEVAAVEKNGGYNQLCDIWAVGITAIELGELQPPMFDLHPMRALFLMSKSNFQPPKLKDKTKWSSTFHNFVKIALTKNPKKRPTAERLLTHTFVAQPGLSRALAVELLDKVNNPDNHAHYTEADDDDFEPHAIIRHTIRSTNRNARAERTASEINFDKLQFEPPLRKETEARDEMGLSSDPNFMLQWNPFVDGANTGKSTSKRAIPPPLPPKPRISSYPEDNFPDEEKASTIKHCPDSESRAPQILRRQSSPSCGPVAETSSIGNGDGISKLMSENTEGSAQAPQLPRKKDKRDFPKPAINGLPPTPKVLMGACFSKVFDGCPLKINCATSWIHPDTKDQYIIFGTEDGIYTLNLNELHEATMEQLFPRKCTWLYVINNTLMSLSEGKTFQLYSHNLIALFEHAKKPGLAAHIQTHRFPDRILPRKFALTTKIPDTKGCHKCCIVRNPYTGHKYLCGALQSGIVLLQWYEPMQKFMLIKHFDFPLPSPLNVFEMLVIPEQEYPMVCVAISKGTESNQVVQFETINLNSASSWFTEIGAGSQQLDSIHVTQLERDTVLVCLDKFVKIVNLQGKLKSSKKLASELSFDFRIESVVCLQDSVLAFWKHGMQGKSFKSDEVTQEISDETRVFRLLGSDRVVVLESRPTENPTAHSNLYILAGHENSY

MAPKAPK2 (human) = MAPKAPK2 (human) (UniProt P49137)
PAK2 (human) = PAK2 (human) (UniProt Q13177)
PBK (human) = PBK (human) (UniProt Q96KB5)
PDPK1 (human) = PDPK1 (human) (UniProt O15530)
PHKG2 (human) = PHKG2 (human) (UniProt P15735)
Chain of PHKG2 (human) (P15735 whole entry, looked up): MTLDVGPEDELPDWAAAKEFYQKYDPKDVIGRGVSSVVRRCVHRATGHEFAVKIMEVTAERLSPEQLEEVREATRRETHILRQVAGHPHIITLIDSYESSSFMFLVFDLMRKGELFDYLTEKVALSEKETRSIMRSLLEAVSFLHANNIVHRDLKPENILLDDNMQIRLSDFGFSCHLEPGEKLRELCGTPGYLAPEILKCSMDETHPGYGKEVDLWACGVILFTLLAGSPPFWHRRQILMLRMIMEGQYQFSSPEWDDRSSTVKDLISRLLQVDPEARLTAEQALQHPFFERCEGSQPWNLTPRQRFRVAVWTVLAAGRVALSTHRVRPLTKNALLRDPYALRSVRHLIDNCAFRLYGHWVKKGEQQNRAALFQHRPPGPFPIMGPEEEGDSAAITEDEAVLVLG

PKN1 (human) = PKN1 (human) (UniProt Q16512)
PRKCB1 (human) = PRKCB1 (human) (UniProt P05771)
PRKCE (human) = PRKCE (human) (UniProt Q02156)
RAF1 (human) = RAF1 (human) (UniProt P04049)
ROCK2 (human) = ROCK2 (human) (UniProt O75116)
RPS6KA3 KD1 KD2 (human) = RPS6KA3 KD1 KD2 (human) (UniProt P51812)
Chain of RPS6KA3 KD1 KD2 (human) (P51812 whole entry, looked up): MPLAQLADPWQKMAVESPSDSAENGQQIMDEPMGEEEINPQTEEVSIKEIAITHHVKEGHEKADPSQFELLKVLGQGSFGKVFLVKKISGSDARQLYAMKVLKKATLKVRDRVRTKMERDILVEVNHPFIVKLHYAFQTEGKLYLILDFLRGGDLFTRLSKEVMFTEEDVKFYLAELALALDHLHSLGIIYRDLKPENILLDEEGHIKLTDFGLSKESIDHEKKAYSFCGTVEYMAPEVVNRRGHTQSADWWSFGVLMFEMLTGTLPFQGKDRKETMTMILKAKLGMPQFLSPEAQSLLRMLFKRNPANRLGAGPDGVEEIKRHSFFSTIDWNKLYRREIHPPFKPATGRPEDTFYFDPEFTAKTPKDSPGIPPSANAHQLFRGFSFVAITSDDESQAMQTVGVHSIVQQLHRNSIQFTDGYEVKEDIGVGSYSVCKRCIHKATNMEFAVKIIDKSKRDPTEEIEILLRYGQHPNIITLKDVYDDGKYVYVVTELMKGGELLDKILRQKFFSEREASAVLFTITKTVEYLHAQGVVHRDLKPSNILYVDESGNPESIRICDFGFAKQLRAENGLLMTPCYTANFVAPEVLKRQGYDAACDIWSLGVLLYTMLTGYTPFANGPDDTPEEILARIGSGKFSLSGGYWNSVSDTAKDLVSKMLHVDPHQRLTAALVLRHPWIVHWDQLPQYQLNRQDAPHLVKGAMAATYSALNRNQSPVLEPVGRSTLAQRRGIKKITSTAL

RPS6KA6 KD1 KD2 (human) = RPS6KA6 KD1 KD2 (human) (UniProt Q9UK32)
STK10 (human) = STK10 (human) (UniProt O94804)
STK11 (human) = STK11 (human) (UniProt Q15831)
Chain of STK11 (human) (Q15831 whole entry, looked up): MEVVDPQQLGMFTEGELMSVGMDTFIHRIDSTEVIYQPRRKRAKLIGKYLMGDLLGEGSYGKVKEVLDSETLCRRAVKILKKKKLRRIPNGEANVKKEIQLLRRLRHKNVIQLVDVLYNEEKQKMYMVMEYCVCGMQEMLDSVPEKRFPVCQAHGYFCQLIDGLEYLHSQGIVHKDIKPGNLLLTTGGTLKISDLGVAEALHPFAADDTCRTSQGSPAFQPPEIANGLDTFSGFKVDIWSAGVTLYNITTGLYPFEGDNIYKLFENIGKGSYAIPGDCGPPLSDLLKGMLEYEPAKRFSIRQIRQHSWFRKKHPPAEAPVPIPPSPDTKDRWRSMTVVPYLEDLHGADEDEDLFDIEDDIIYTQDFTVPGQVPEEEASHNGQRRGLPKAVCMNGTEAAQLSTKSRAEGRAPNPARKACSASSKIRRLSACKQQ

STK3 (human) = STK3 (human) (UniProt Q13188)
Chain of STK3 (human) (Q13188 whole entry, looked up): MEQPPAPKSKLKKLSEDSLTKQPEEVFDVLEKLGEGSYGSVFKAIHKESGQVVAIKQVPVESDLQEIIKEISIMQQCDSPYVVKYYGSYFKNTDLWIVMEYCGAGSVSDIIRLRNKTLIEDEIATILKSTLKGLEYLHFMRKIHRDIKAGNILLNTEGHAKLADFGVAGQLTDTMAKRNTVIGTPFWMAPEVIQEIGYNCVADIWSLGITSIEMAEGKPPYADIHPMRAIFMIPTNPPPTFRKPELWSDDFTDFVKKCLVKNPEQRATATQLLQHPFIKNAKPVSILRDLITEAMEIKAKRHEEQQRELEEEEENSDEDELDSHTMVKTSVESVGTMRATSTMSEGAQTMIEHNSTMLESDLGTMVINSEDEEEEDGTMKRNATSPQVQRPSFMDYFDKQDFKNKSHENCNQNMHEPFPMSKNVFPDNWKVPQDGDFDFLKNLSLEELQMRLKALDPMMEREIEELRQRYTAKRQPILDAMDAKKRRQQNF

STK39 (human) = STK39 (human) (UniProt Q9UEW8)
TAOK1 (human) = TAOK1 (human) (UniProt Q7L7X3)
TGFBR1 (human) = TGFBR1 (human) (UniProt P36897)
TXK (human) = TXK (human) (UniProt P42681)
WNK3 (human) = WNK3 (human) (UniProt Q9BYP7)
ZAP70 (human) = ZAP70 (human) (UniProt P43403)
Chain of ZAP70 (human) (P43403 whole entry, looked up): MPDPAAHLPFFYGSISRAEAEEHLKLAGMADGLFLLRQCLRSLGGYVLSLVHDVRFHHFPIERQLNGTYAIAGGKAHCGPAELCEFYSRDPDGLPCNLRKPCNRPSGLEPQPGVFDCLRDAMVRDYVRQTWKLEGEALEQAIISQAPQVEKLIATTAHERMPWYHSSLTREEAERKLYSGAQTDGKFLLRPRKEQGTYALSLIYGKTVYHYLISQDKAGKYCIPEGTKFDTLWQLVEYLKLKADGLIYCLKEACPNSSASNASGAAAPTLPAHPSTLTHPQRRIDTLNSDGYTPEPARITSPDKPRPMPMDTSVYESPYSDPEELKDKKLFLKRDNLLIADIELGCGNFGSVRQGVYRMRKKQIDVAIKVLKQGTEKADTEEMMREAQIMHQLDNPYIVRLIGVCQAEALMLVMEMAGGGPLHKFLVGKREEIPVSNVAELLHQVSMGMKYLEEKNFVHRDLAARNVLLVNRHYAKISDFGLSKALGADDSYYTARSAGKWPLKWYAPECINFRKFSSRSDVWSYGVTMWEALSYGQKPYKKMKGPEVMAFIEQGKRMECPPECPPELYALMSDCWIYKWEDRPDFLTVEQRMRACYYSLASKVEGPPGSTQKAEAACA

Structure (SMILES): COc1ccc(S(=O)(=O)N(CCO)c2ccccc2CN(C)C/C=C/c2ccc(Cl)cc2)cc1
- residual activity (ABL1 (human)): 100%
- residual activity (AKT2 (human)): 106%
- residual activity (CDK1 CCNB1 (human)): 105%
- residual activity (CDK2 CCNE1 (human)): 94%
- residual activity (CDK9 CCNT1 (human)): 103%
- residual activity (CSK (human)): 95.6%
- residual activity (DSTYK (human)): 93.5%
- residual activity (DYRK4 (human)): 99.6%
- residual activity (EPHA2 (human)): 104%
- residual activity (EPHA4 (human)): 99.2%
- residual activity (FYN (human)): 103%
- residual activity (GSG2 (human)): 95.3%
- residual activity (IGF1R (human)): 103%
- residual activity (JAK2 JH1 JH2 (human)): 98.4%
- residual activity (LCK (human)): 95.5%
- residual activity (LIMK1 (human)): 102%
- residual activity (LRRK2 (human)): 101%
- residual activity (LYN (human)): 92.3% and 96.8%
- residual activity (MAP3K10 (human)): 92.4%
- residual activity (MAP3K11 (human)): 99.3%
- residual activity (MAP4K5 (human)): 99.7%
- residual activity (MAPKAPK2 (human)): 102%
- residual activity (PAK2 (human)): 101%
- residual activity (PBK (human)): 95.3%
- residual activity (PDPK1 (human)): 93.7%
- residual activity (PHKG2 (human)): 103%
- residual activity (PKN1 (human)): 110%
- residual activity (PRKCB1 (human)): 97.7%
- residual activity (PRKCE (human)): 97.2%
- residual activity (RAF1 (human)): 93.7%
- residual activity (ROCK2 (human)): 94.6%
- residual activity (RPS6KA3 KD1 KD2 (human)): 98%
- residual activity (RPS6KA6 KD1 KD2 (human)): 102%
- residual activity (STK10 (human)): 99.4%
- residual activity (STK11 (human)): 97.7%
- residual activity (STK3 (human)): 101%
- residual activity (STK39 (human)): 92.8%
- residual activity (TAOK1 (human)): 103%
- residual activity (TGFBR1 (human)): 101%
- residual activity (TXK (human)): 95.6%
- residual activity (WNK3 (human)): 99.4%
- residual activity (ZAP70 (human)): 84.7%

Structure (SMILES): COc1cc2ncnc(Nc3ccc(Oc4ccccc4)cc3)c2cc1OC
- residual activity (ABL1 (human)): 81.8%
- residual activity (AKT2 (human)): 99.4%
- residual activity (CDK1 CCNB1 (human)): 81.2%
- residual activity (CDK2 CCNE1 (human)): 87.8%
- residual activity (CDK9 CCNT1 (human)): 86.7%
- residual activity (CSK (human)): 18.8%
- residual activity (DSTYK (human)): 91.6%
- residual activity (DYRK4 (human)): 97.3%
- residual activity (EPHA2 (human)): 106%
- residual activity (EPHA4 (human)): 106%
- residual activity (FYN (human)): 26.9%
- residual activity (GSG2 (human)): 92%
- residual activity (IGF1R (human)): 102%
- residual activity (JAK2 JH1 JH2 (human)): 95.6%
- residual activity (LCK (human)): 4.72%
- residual activity (LIMK1 (human)): 89%
- residual activity (LRRK2 (human)): 65.3%
- residual activity (LYN (human)): 21.6% and 42.6%
- residual activity (MAP3K10 (human)): 96.7%
- residual activity (MAP3K11 (human)): 68.5%
- residual activity (MAP4K5 (human)): 70.6%
- residual activity (MAPKAPK2 (human)): 103%
- residual activity (PAK2 (human)): 78.7%
- residual activity (PBK (human)): 92.6%
- residual activity (PDPK1 (human)): 111%
- residual activity (PHKG2 (human)): 100%
- residual activity (PKN1 (human)): 97.3%
- residual activity (PRKCB1 (human)): 109%
- residual activity (PRKCE (human)): 94.6%
- residual activity (RAF1 (human)): 88.9%
- residual activity (ROCK2 (human)): 99.3%
- residual activity (RPS6KA3 KD1 KD2 (human)): 97.8%
- residual activity (RPS6KA6 KD1 KD2 (human)): 111%
- residual activity (STK10 (human)): 74%
- residual activity (STK11 (human)): 93.6%
- residual activity (STK3 (human)): 121%
- residual activity (STK39 (human)): 102%
- residual activity (TAOK1 (human)): 105%
- residual activity (TGFBR1 (human)): 97.1%
- residual activity (TXK (human)): 78%
- residual activity (WNK3 (human)): 87.8%
- residual activity (ZAP70 (human)): 97%

Structure (SMILES): O=C1NC(=O)c2c1c1c3ccccc3[nH]c1n1cncc21
- residual activity (ABL1 (human)): 85.6%
- residual activity (AKT2 (human)): 121%
- residual activity (CDK1 CCNB1 (human)): 85.5%
- residual activity (CDK2 CCNE1 (human)): 66.5%
- residual activity (CDK9 CCNT1 (human)): 82.9%
- residual activity (CSK (human)): 83.3%
- residual activity (DSTYK (human)): 106%
- residual activity (DYRK4 (human)): 107%
- residual activity (EPHA2 (human)): 102%
- residual activity (EPHA4 (human)): 98.6%
- residual activity (FYN (human)): 97.7%
- residual activity (GSG2 (human)): 33.5%
- residual activity (IGF1R (human)): 76.8%
- residual activity (JAK2 JH1 JH2 (human)): 117%
- residual activity (LCK (human)): 87.1%
- residual activity (LIMK1 (human)): 74.7%
- residual activity (LRRK2 (human)): 61.3%
- residual activity (LYN (human)): 94.8% and 96.2%
- residual activity (MAP3K10 (human)): 82.5%
- residual activity (MAP3K11 (human)): 57.5%
- residual activity (MAP4K5 (human)): 13.5%
- residual activity (MAPKAPK2 (human)): 98.9%
- residual activity (PAK2 (human)): 99%
- residual activity (PBK (human)): 72.4%
- residual activity (PDPK1 (human)): 89%
- residual activity (PHKG2 (human)): 108%
- residual activity (PKN1 (human)): 76.4%
- residual activity (PRKCB1 (human)): 95%
- residual activity (PRKCE (human)): 84.9%
- residual activity (RAF1 (human)): 108%
- residual activity (ROCK2 (human)): 93.2%
- residual activity (RPS6KA3 KD1 KD2 (human)): 47.4%
- residual activity (RPS6KA6 KD1 KD2 (human)): 33.4%
- residual activity (STK10 (human)): 69%
- residual activity (STK11 (human)): 45.2%
- residual activity (STK3 (human)): 41%
- residual activity (STK39 (human)): 104%
- residual activity (TAOK1 (human)): 135%
- residual activity (TGFBR1 (human)): 96.3%
- residual activity (TXK (human)): 76.4%
- residual activity (WNK3 (human)): 79.1%
- residual activity (ZAP70 (human)): 87.8%

Structure (SMILES): N#Cc1c[nH]c2c[nH]/c(=N\Cc3cccnc3)cc2/c1=N\c1ccc(F)c(Cl)c1
- residual activity (ABL1 (human)): 93.4%
- residual activity (AKT2 (human)): 101%
- residual activity (CDK1 CCNB1 (human)): 84.6%
- residual activity (CDK2 CCNE1 (human)): 94.1%
- residual activity (CDK9 CCNT1 (human)): 91.2%
- residual activity (CSK (human)): 95.2%
- residual activity (DSTYK (human)): 87.3%
- residual activity (DYRK4 (human)): 84.4%
- residual activity (EPHA2 (human)): 102%
- residual activity (EPHA4 (human)): 92.8%
- residual activity (FYN (human)): 103%
- residual activity (GSG2 (human)): 82.5%
- residual activity (IGF1R (human)): 93.8%
- residual activity (JAK2 JH1 JH2 (human)): 99%
- residual activity (LCK (human)): 97.3%
- residual activity (LIMK1 (human)): 101%
- residual activity (LRRK2 (human)): 86.6%
- residual activity (LYN (human)): 90.4% and 94.1%
- residual activity (MAP3K10 (human)): 101%
- residual activity (MAP3K11 (human)): 89%
- residual activity (MAP4K5 (human)): 61.7%
- residual activity (MAPKAPK2 (human)): 100%
- residual activity (PAK2 (human)): 66.6%
- residual activity (PBK (human)): 84.8%
- residual activity (PDPK1 (human)): 85.3%
- residual activity (PHKG2 (human)): 88.3%
- residual activity (PKN1 (human)): 101%
- residual activity (PRKCB1 (human)): 104%
- residual activity (PRKCE (human)): 101%
- residual activity (RAF1 (human)): 90.9%
- residual activity (ROCK2 (human)): 97.1%
- residual activity (RPS6KA3 KD1 KD2 (human)): 99.1%
- residual activity (RPS6KA6 KD1 KD2 (human)): 104%
- residual activity (STK10 (human)): 52.8%
- residual activity (STK11 (human)): 91.1%
- residual activity (STK3 (human)): 94.3%
- residual activity (STK39 (human)): 78.6%
- residual activity (TAOK1 (human)): 89.9%
- residual activity (TGFBR1 (human)): 99.6%
- residual activity (TXK (human)): 88.1%
- residual activity (WNK3 (human)): 92.4%
- residual activity (ZAP70 (human)): 103%
